{"source": "patent US10251902B2", "about": "“Pharmaceutical composition for treating or preventing neuropsychiatric disease, containing flavone-6-C-glucose derivatives as active ingredients” (priority 2013, dated 2019)", "system": "mouse model of stroke", "test": "Y-maze test in mouse model of stroke", "assay_type": "in vivo, ICR mice", "conditions": "for Alternation Behavior (%): Table 11, test on 7th day; for Total Entry: Table 12", "procedure": "Seven-week old ICR mice in about 30 g to 35 g (Orientbio Inc, Republic of Korea) were received water and feed without constraint and adapted for 5 days under an environment having about 23±1° C. of temperature, about 60±10% of humidity and 12-hour light/dark cycle (animal laboratory at College of Pharmacy, Kyung-Hee University), and then used for the experiment.\nThe laboratory animal in 1) was located in an operating room, adapted for 60 minutes, and anesthetized in a space providing anaesthetic gasses (nitrous oxide: 70%; oxygen: 30%; isoflurane: 2.0%). Pain reflex was examined to confirm the anesthesia. The laboratory animal was lain down straight on an operating table, and fixed its upper limb and head. Skin from the spot, where the upper limb and the center line meet, was incised as 1.5 cm to expose the both common carotid arteries by using tweezers while not damaging the tissues. Tissues and nerves attached to the exposed carotid arteries were separated and fixed with an aneurysm clip. The clip was removed after 15 minutes and reperfused, and the incised area was sutured with sutures. After the suture, the laboratory animal was immediately moved to a recovery room (32-33° C., O2 enrichment condition) and kept until it recovers from anesthesia. Observation on its weight and status was conducted once a day for 4 days after the operation.\nAdministration of the Swertia japonica extract prepared in Example 1 was initiated to the mice prepared in the 1) immediately after the operation 3), and kept administering at the same time for 7 days. Five groups (5 mice per each group) were prepared as drug administration groups 1, 2 and 3, wherein the Swertia japonica extract prepared in Example 1 was administered thereto; and controls 1 and 2. 50 mg/kg, 100 mg/kg and 200 mg/kg of the Swertia japonica extract was administered to the drug administration groups 1, 2 and 3 respectively; and 0.15 mL of Tween 80 was administered to the controls 1 and 2 respectively. At the 7th day from the initial administration, the Y-maze test was conducted for the drug administration groups 1 to 3 and the controls 1 to 2 in the same manner as Experimental Example 1-5.\nAfter 60 minutes, mice of the drug administration groups 1-3 and the controls 1-2 were carefully located on each branches of the Y-maze, which was divided as A, B and C respectively, and let the mice move freely for 8 minutes, and then recorded branches that mice have entered. The entrance was recorded when the entire body (i.e. including the tail) has completely entered. It was also recorded when the mice entered again into the branch that the mice have entered before. The result was converted into % via Equation 1.\nAdministration of swertisin prepared in Example 3 was initiated to the mice prepared in 1) immediately after the operation 3), and kept administering at the same time for 7 days. Five groups (5 mice per each group) were prepared as drug administration groups 1, 2 and 3, wherein swertisin prepared in Example 3 was administered thereto; and controls 1 and 2. 50 mg/kg, 100 mg/kg and 200 mg/kg of swertisin was administered to the drug administration groups 1, 2 and 3 respectively; and 0.15 mL of Tween 80 was administered to the controls 1 and 2 respectively. At the 7th day from the initial administration, the Y-maze test was conducted for the drug administration groups 1 to 3 and the controls 1 to 2 in the same manner as Experimental Example 1.", "key": {"[1]": {"conditions": "swertisin 50 mg/kg for 7 days after stroke operation"}, "[2]": {"conditions": "swertisin 100 mg/kg for 7 days after stroke operation"}, "[3]": {"conditions": "swertisin 200 mg/kg for 7 days after stroke operation"}}}
{"compound": "COc1cc2oc(-c3ccc(O)cc3)cc(=O)c2c(O)c1[C@@H]1O[C@H](CO)[C@@H](O)[C@H](O)[C@H]1O", "note": "[swertisin]", "values": [{"measurement": "Alternation Behavior (%)", "setting": "[1]", "result": "56.10 ± 7.431", "unit": "%"}, {"measurement": "Alternation Behavior (%)", "setting": "[2]", "result": "57.58 ± 12.86", "unit": "%"}, {"measurement": "Alternation Behavior (%)", "setting": "[3]", "result": "70.46 ± 15.74", "unit": "%"}, {"measurement": "Total Entry", "setting": "[1]", "result": "24.14 ± 2.478"}, {"measurement": "Total Entry", "setting": "[2]", "result": "28.50 ± 6.364"}, {"measurement": "Total Entry", "setting": "[3]", "result": "22.00 ± 5.958"}]}
